Source: paper PMC10352132 (Nature Structural & Molecular Biology, 2023)
Several values for one entry are separate records, joined by “and”; a condition that tells them apart may be missing. Equal values may be shown once. Read-outs that look alike come from different tables or passages of the source.

Columns and labels:
rGAT1WT [1] = biological target: T1, rGAT1WT (Rattus norvegicus, UniProt P23978); experiment: Inhibition of 3H-GABA uptake through rGAT1WT; format: cell-based; conditions: rGAT1WT; for 3[H]GABA uptake (% of uninhibited sample): replicates T1-T6
Method: (§1) […]. After 15 min, the uptake was arrested with 100 µl of ice-cold assay buffer and washed two times with the same buffer. The cells were solubilized for 1 h in 100 µl of 20 mM DDM and 2 mM CHS, and 50 µl of scintillant was added to the solubilized material. Counts were measured using a MicroBeta scintillation counter. Uninfected cells were used as a control. The background-subtracted dose–response curves were plotted as log [inhibitor] versus response using GraphPad Prism (version 5.0.1) and IC50 values were determined. The Ki values were calculated using Cheng-Prusoff’s equation. […] The data were analyzed using GraphPad Prism (version 5.0.1).

rGAT1EM [2] = biological target: T2, rGAT1EM (Rattus norvegicus, UniProt P23978, D482E/E486D/F312Y/N483D/Q485R/R491P/S490F/V488I/Y481S); experiment: Inhibition of 3H-GABA uptake through rGAT1EM; format: cell-based; conditions: rGAT1EM; for 3[H]GABA uptake (% of uninhibited sample): replicates T1-T6
T2 sequence (P23978 with tags, fused parts or gaps F312Y/Y481S/D482E/N483D/Q485R/E486D/V488I/S490F/R491P): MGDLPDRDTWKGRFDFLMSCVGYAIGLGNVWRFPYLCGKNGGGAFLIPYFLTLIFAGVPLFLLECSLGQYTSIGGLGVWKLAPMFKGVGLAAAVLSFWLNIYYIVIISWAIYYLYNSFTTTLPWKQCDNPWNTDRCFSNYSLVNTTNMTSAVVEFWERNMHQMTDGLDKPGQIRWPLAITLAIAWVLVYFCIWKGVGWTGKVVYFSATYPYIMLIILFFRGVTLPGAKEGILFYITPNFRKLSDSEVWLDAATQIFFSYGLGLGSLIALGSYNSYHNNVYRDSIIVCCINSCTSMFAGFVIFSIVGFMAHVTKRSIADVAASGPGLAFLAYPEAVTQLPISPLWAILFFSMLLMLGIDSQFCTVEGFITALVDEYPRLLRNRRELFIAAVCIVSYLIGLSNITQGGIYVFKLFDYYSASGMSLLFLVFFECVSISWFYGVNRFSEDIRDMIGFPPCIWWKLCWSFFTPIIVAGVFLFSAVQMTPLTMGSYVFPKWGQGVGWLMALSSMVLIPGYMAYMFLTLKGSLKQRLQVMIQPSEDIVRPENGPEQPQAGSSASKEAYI
Method: as §1

rGAT1WT [3] = biological target: T1, rGAT1WT; experiment: MS binding assay (LC-ESI-MS/MS saturation) with rGAT1WT expressing membranes; conditions: for total binding / non-specific binding: rGAT1WT; for total binding: triplicate; for non-specific binding: in the presence of 100 mM GABA
Method: (§2) The cell suspension was sonicated, the lysate was centrifuged at 21,000×g to separate the cell debris and 1 ml of the supernatant was aliquoted into each of forty 1.5 ml microfuge tubes. The membrane suspension was spun at 49,000×g for 90 min in a TLA100.1 rotor (Beckman) followed by flash-freezing and storage at −80 °C.
(§3) Binding experiments were performed as described unless stated otherwise. Aliquots of rGAT1 or hGAT1[53] membrane preparations were defrosted, diluted in 20 ml 50 mM Tris-citrate buffer containing 1 M NaCl, pH 7.1 (assay buffer) and centrifuged (50,000×g, 4 °C, 20 min). After resuspension of the pellet in assay buffer, saturation experiments with NO711 were performed in triplicate samples (about 10 µg protein) in a total assay volume of 250 µl. […] Incubation was performed for 40 min at 37 °C; subsequently, 200 µl aliquots of the binding samples were transferred onto 96-well filter plates and filtrated under vacuum, followed by rapid washing of the filters with ice-cold 0.9% NaCl (3 × 150 µl). The filter plates were then dried (60 min, 50 °C) and eluted with 3 × 100 µl methanol (containing 1.43 nM D10-NO711). […] Analysis of the binding data was performed with GraphPad Prism (version 6.0.7). The results are based on at least three independent saturation experiments for each GAT1 species.

rGAT1EM [4] = biological target: T2, rGAT1EM; experiment: MS binding assay (LC-ESI-MS/MS saturation) with rGAT1EM expressing membranes; conditions: for total binding / non-specific binding: rGAT1EM; for total binding: triplicate; for non-specific binding: in the presence of 100 mM GABA
Method: as §2, §3

[5] = calculated using Cheng-Prusoff's equation

`O=C(O)C1=CCCN(CCON=C(c2ccccc2)c2ccccc2)C1` [NO711] was tested, and the IC50 (rGAT1WT [1]) was 0.563 µM, the Ki (rGAT1WT [1]; [5]) was 0.325 ± 0.035 µM and the “3[H]GABA uptake (% of uninhibited sample)” value (rGAT1WT [1]; inhibitor 1 nM, 0.001 µM) was 91.7343% and 91.298% and 89.6982% and 104.496% and 107.442% and 95.8793%. The “3[H]GABA uptake (% of uninhibited sample)” value (rGAT1WT [1]; inhibitor 10 nM, 0.01 µM) was 89.0619% and 103.351% and 105.969% and 101.46% and 106.551% and 93.6068%, the “3[H]GABA uptake (% of uninhibited sample)” value (rGAT1WT [1]; inhibitor 30 nM, 0.03 µM) was 83.2626% and 81.7356% and 90.8981% and 90.6072% and 95.952% and 94.6794% and the “3[H]GABA uptake (% of uninhibited sample)” value (rGAT1WT [1]; inhibitor 100 nM, 0.1 µM) was 91.189% and 83.9535% and 82.5718% and 49.5576% and 81.2629% and 73.9547%. For the same compound, the “3[H]GABA uptake (% of uninhibited sample)” value (rGAT1WT [1]; inhibitor 500 nM, 0.5 µM) was 55.0115% and 49.6303% and 48.5396% and 53.3026% and 54.4298% and 46.4671%, the “3[H]GABA uptake (% of uninhibited sample)” value (rGAT1WT [1]; inhibitor 1000 nM, 1 µM) was 39.1225% and 40.286% and 41.9222% and 36.8319% and 37.6318% and 37.6682% and the “3[H]GABA uptake (% of uninhibited sample)” value (rGAT1WT [1]; inhibitor 3000 nM, 3 µM) was 18.3614% and 14.2165% and 17.0888% and 16.5071%. The Ki (rGAT1EM [2]; [5]) was 0.053 ± 0.004 µM, the “3[H]GABA uptake (% of uninhibited sample)” value (rGAT1EM [2]; inhibitor 1 nM, 0.001 µM) was 100.216% and 103.239% and 95.1781% and 97.6251% and 105.398% and 98.3447% and the “3[H]GABA uptake (% of uninhibited sample)” value (rGAT1EM [2]; inhibitor 10 nM, 0.01 µM) was 90.824% and 80.7485% and 91.6877% and 97.5891% and 93.055% and 87.4415%. The “3[H]GABA uptake (% of uninhibited sample)” value (rGAT1EM [2]; inhibitor 30 nM, 0.03 µM) was 85.8582% and 72.9759% and 75.9266% and 79.8129% and 79.2371% and 88.8089%, the “3[H]GABA uptake (% of uninhibited sample)” value (rGAT1EM [2]; inhibitor 100 nM, 0.1 µM) was 55.6315% and 53.1846% and 49.5862% and 54.3361% and 66.2109% and 52.321% and the “3[H]GABA uptake (% of uninhibited sample)” value (rGAT1EM [2]; inhibitor 500 nM, 0.5 µM) was 29.8309% and 34.7967% and 26.0165% and 31.1983% and 34.4368% and 36.2361%. The “3[H]GABA uptake (% of uninhibited sample)” value (rGAT1EM [2]; inhibitor 1000 nM, 1 µM) was 17.0205% and 18.9637% and 19.4674% and 16.1569% and 19.1796% and 13.2062%, the “3[H]GABA uptake (% of uninhibited sample)” value (rGAT1EM [2]; inhibitor 3000 nM, 3 µM) was 9.608% and 6.153% and 8.168% and 9.104% (2×) and 11.1191% and the “3[H]GABA uptake (% of uninhibited sample)” value (rGAT1EM [2]; inhibitor 10000 nM, 10 µM) was 5.11% and 2.879% and 4.39% and 4.246% and 2.375% and 5.038%. The “3[H]GABA uptake (% of uninhibited sample)” value (rGAT1EM [2]; inhibitor 50000 nM, 50 µM) was 1.763% and 1.439% and 0.8276% and 1.799% and 0.8996% and 1.3674%, the “3[H]GABA uptake (% of uninhibited sample)” value (rGAT1EM [2]; inhibitor 100000 nM, 100 µM) was 0.5757% and 0.6477% and 0.7197% and 0.5038% (2×) and 0.3598% and the IC50 (rGAT1EM [2]; read-out: IC50 of inhibition of 3H-GABA uptake) was 0.155 µM. For the same compound, the IC50 (rGAT1EM [2]; read-out: inhibition potencies (K0.5)) was 0.155 µM, the “BMAX (MS binding assay)” value (rGAT1WT [3]; rGAT1WT membranes) was 166.4 ± 44.6 pmol/mg protein and the Kd (rGAT1WT [3]; rGAT1WT membranes) was 0.05 µM and 0.0506 µM. The total binding (rGAT1WT [3]; c NO711 2.5 nM) was 0.0851 nM and 0.0839 nM and 0.0992 nM, the total binding (rGAT1WT [3]; c NO711 5 nM) was 0.236 nM and 0.225 nM and 0.219 nM and the total binding (rGAT1WT [3]; c NO711 10 nM) was 0.387 nM and 0.361 nM. The total binding (rGAT1WT [3]; c NO711 20 nM) was 0.566 nM and 0.612 nM and 0.546 nM, the non-specific binding (rGAT1WT [3]; c NO711 40 nM) was 0.0154 nM and 0.0179 nM and 0.0127 nM and the total binding (rGAT1WT [3]; c NO711 40 nM) was 0.967 nM and 0.954 nM and 0.928 nM. The non-specific binding (rGAT1WT [3]; c NO711 80 nM) was 0.0317 nM and 0.0305 nM and 0.029 nM, the total binding (rGAT1WT [3]; c NO711 80 nM) was 1.15 nM and 1.08 nM and 1.2 nM and the non-specific binding (rGAT1WT [3]; c NO711 160 nM) was 0.0708 nM and 0.0715 nM and 0.07 nM. For the same compound, the total binding (rGAT1WT [3]; c NO711 160 nM) was 1.46 nM and 1.6 nM, the non-specific binding (rGAT1WT [3]; c NO711 320 nM) was 0.131 nM and 0.157 nM and 0.18 nM and the total binding (rGAT1WT [3]; c NO711 320 nM) was 1.95 nM and 1.86 nM and 1.76 nM. The non-specific binding (rGAT1WT [3]; c NO711 640 nM) was 0.27 nM and 0.291 nM and 0.276 nM, the total binding (rGAT1WT [3]; c NO711 640 nM) was 2.12 nM and 2.1 nM and 2.38 nM and the non-specific binding (rGAT1WT [3]; c NO711 1280 nM) was 0.65 nM and 0.595 nM and 0.624 nM. The total binding (rGAT1WT [3]; c NO711 1280 nM) was 2.77 nM and 2.69 nM and 2.73 nM, the “BMAX (MS binding assay)” value (rGAT1EM [4]; rGAT1EM membranes) was 212.4 ± 30.3 pmol/mg protein and the Kd (rGAT1EM [4]; rGAT1EM membranes) was 0.08 µM and 0.0807 µM. The total binding (rGAT1EM [4]; c NO711 2.5 nM) was 0.0853 nM and 0.0717 nM and 0.0765 nM, the total binding (rGAT1EM [4]; c NO711 5 nM) was 0.175 nM and 0.157 nM and 0.182 nM and the total binding (rGAT1EM [4]; c NO711 10 nM) was 0.266 nM and 0.298 nM and 0.282 nM. The total binding (rGAT1EM [4]; c NO711 20 nM) was 0.414 nM and 0.405 nM and 0.393 nM, the non-specific binding (rGAT1EM [4]; c NO711 40 nM) was 0.0146 nM and 0.0116 nM and 0.0148 nM and the total binding (rGAT1EM [4]; c NO711 40 nM) was 0.654 nM and 0.656 nM and 0.82 nM. The non-specific binding (rGAT1EM [4]; c NO711 80 nM) was 0.0357 nM and 0.0322 nM and 0.0377 nM, the total binding (rGAT1EM [4]; c NO711 80 nM) was 0.825 nM and 0.877 nM and 0.867 nM and the non-specific binding (rGAT1EM [4]; c NO711 160 nM) was 0.0681 nM and 0.0747 nM and 0.0767 nM. For the same compound, the total binding (rGAT1EM [4]; c NO711 160 nM) was 1.22 nM and 1.29 nM and 1.33 nM, the non-specific binding (rGAT1EM [4]; c NO711 320 nM) was 0.131 nM and 0.148 nM and 0.145 nM and the total binding (rGAT1EM [4]; c NO711 320 nM) was 1.55 nM and 1.39 nM and 1.57 nM. The non-specific binding (rGAT1EM [4]; c NO711 640 nM) was 0.281 nM and 0.277 nM and 0.282 nM, the total binding (rGAT1EM [4]; c NO711 640 nM) was 1.85 nM and 2.19 nM and 2.02 nM and the non-specific binding (rGAT1EM [4]; c NO711 1280 nM) was 0.608 nM and 0.571 nM and 0.589 nM. For the same compound, the total binding (rGAT1EM [4]; c NO711 1280 nM) was 2.47 nM and 2.46 nM.
